Data reported in publication PMC6484527 (Slas Discovery, 2018).
pEC50: −log10 of the molar value. Read-outs that look alike come from different tables or passages of the source.

Experiments:
B-Raf [1] = target: T1, B-Raf (Homo sapiens, UniProt P15056, V600E); experiment: cell-based; type: cell-based; settings: for pEC50: B-Raf ITDRFCETSA pEC50, 2 h incubation with live A375 cells, mean ± standard deviation of ⩾3 technical repeats
B-Raf [2] = target: T1, B-Raf; experiment: B-Raf CETSA HT single-concentration screen of kinase inhibitor library; type: cell-based; settings: 30 µM, 2 h incubation with live A375 cells, 49 °C heatshock, two technical repeats
purified B-Raf protein = purified B-Raf protein (Homo sapiens, UniProt P15056); experiment: Differential scanning fluorimetry with purified B-Raf protein; type: binding; settings: same concentration (30 µM); data not shown
[3] = A375 cells, at least three technical repeats

T1 sequence (P15056 whole entry V600E): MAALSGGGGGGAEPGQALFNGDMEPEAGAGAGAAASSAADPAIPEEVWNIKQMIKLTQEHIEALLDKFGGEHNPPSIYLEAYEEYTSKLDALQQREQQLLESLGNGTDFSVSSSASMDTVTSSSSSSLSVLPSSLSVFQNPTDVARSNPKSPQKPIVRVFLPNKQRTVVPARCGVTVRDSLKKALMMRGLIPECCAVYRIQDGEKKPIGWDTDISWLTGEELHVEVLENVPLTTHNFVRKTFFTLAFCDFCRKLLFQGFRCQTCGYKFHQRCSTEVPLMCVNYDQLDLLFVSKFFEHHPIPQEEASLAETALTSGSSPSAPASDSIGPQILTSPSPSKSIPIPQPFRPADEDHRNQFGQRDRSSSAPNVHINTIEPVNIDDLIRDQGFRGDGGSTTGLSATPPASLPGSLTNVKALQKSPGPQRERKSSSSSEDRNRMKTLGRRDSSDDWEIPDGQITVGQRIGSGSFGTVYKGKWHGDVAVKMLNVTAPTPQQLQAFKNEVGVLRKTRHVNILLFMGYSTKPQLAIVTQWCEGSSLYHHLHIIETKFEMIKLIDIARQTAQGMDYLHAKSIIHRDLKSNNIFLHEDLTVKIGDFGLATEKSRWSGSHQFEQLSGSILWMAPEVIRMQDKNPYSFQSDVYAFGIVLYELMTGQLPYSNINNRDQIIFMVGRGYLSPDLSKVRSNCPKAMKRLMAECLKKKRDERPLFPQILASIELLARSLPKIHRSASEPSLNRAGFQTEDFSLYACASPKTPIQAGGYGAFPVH
purified B-Raf protein, sequence (P15056 whole entry): as the sequence (P15056 whole entry V600E) above, with E600V counted along it

| B-Raf ITDRFCETSA activity (in words) (B-Raf [1]; [3]) | Thermal stabilization of B-Raf in CETSA HT screen (hit call) (B-Raf [2]) | B-Raf ITDRFCETSA activity (in words) (B-Raf [1]) | Structure (SMILES) | further results |
| --- | --- | --- | --- | --- |
| clear evidence of target engagement |  |  | Cc1ccc(NC(=O)c2cccc(C(C)(C)C#N)c2)cc1Nc1ccc2ncn(C)c(=O)c2c1 [AZ628] |  |
|  | hits |  | COc1cc2ncnc(Oc3cccc(NC(=O)Nc4cc(C(C)(C)C(F)(F)F)on4)c3)c2cc1OC [CEP-32496] |  |
| weak activity |  |  | CNS(=O)(=O)Nc1nccc(Cc2c(C)c3ccc(Oc4ncccn4)cc3oc2=O)c1F [CH-5126766] | pEC50 (B-Raf [1]): 5.00 |
| inactive |  |  | C[C@@H](Oc1cc(-c2cnn(C3CCNCC3)c2)cnc1N)c1c(Cl)ccc(F)c1Cl [Crizotinib, crizotinib] |  |
|  | Activity was also observed |  | CCn1c(=O)c(-c2cc(NC(=O)Nc3ccccc3)c(F)cc2Br)cc2cnc(NC)cc21 [DCC-2618] | Thermal stabilization of purified B-Raf protein by differential scanning fluorimetry (purified B-Raf protein): showed thermal stabilization |
|  | active | clear evidence of target engagement | CC(C)(C)c1nc(-c2cccc(NS(=O)(=O)c3c(F)cccc3F)c2F)c(-c2ccnc(N)n2)s1 [Dabrafenib, dabrafenib] |  |
| inactive |  |  | O=C(NOCCO)c1ccc2cncn2c1Nc1ccc(I)cc1F [GDC-0623] | pEC50 (B-Raf [1]): < 4.50 |
|  | hits |  | OCCn1cc(-c2ccc3c(c2)CC/C3=N\O)c(-c2ccncc2)n1 [GDC-0879] |  |
|  |  | clear evidence of target engagement | CNc1ncc2cc(-c3cc(NC(=O)NCCC(C)(C)C)c(F)cc3C)c(C)nc2n1 [LY3009120] |  |
|  |  | clear evidence of target engagement | CCCS(=O)(=O)Nc1ccc(F)c(C(=O)c2c[nH]c3ncc(Cl)cc23)c1F [PLX4720] |  |
| inactive |  |  | O=C(Nc1ccc2[nH]nc(-c3ccncc3)c2c1)[C@@H]1CCN(CC(=O)N2CCN(c3ccc(-c4ncccn4)cc3)CC2)C1 [SCH772984] | pEC50 (B-Raf [1]): < 4.50 |
|  | active | clear evidence of target engagement | CCCS(=O)(=O)Nc1ccc(F)c(C(=O)c2c[nH]c3ncc(-c4ccc(Cl)cc4)cc23)c1F [Vemurafenib, vemurafenib] |  |
|  | showed activity |  | Cc1ccc(C(=O)Nc2ccc(CN3CCN(C)CC3)c(C(F)(F)F)c2)cc1C#Cc1cnc2cccnn12 [ponatinib] |  |
